The results in this text go back to patent publication US6378981B1, “Surfactant for inkjet service station wiper fluid” (Hewlett-Packard Company, priority 2000, dated 2002).

Structures are written as SMILES.

How the values of data set [1] were obtained: Non-ionic surfactants (Tergitol 15-S-5, Surfynol465), an amphoteric surfactant (Mackam OCT-50), an anionic surfactant (Dodecylbenzene sulfonate Na) and a cationic surfactant (Cetyl trimethyl ammonium bromide) were tested for solubility in an inkjet test ink having the following formulation.
The pass/fail criteria were the absence or presence of insoluble material on the bottom on the container after three days at room temperature.

A short description of data set [2]: Separation of surfactant from PEG400, observed for seven days. Format: physicochemical. Conditions: 1 wt. % solution in PEG400, 50 ml tubes, observed daily for seven days. As to the method: 1 wt. % solutions of C8AO (Hexyl dimethyl amine oxide), C10AO (NN dimethyl octyl amine oxide), C14AO (NN Dimethyl dodecyl amine oxide), […] and C18AO (NN Dimethyl-N-oxide hexadecane amine) with PEG400 were prepared and placed in 50 ml tubes. The tubes were observed daily for seven days. No separation of surfactant from PEG400 was observed.

Data set [3] is described as follows: Wetting effectiveness of surfactants on orifice (nozzle) plate. Format: physicochemical. The arrangement: key: Good: Wetting is considered “good” when a very thick layer of ink spreads out evenly on the orifice plate. As to the method: To determine an effective surfactant concentration range in a servicing fluid, the following procedure was used. A think uniform coat of test servicing fluid was applied to the nozzle plate. 0.5 μl of drop test ink was then applied to the coated nozzle plate and the maximum dot diameter was then measured.
Wetting is considered “good” when a very thick layer of ink spreads out evenly on the orifice plate.

With `CCCCCCCCCCCCCCCC[N+](C)(C)C.[Br-]` [Cetyl trimethyl ammonium bromide], the Compatibility entry in data set [1] is listed as “Fail”.
Take `CCCCCC[N+](C)(C)[O-]` [Hexyl dimethyl amine oxide]: the Compatibility result in data set [1] is “Pass”. The “Separation of surfactant from PEG400” value in data set [2] is “No separation”.
In the case of `CCCCCCCC[N+](C)(C)[O-]` [Dimethyl Octylamine oxide], the Wetting result in data set [3] (0.01 wt. % surfactant in PEG 300 servicing fluid) is “Good”; in data set [3] (0.1 wt. % surfactant in PEG 300 servicing fluid), “Good”; in data set [3] (1.0 wt. % surfactant in PEG 300 servicing fluid), “Poor”; in data set [3] (2.0 wt. % surfactant in PEG 300 servicing fluid) it was “Poor”; in data set [3] (3.0 wt. % surfactant in PEG 300 servicing fluid), “Poor”; in data set [3] (4.0 wt. % surfactant in PEG 300 servicing fluid) it was “Poor”. Also, in data set [2], the “Separation of surfactant from PEG400” value is on record as “No separation”.
Regarding `CCCCCCCCCCCC[N+](C)(C)[O-]` [C14AO, NN Dimethyl dodecyl amine oxide], the “Separation of surfactant from PEG400” value in data set [2] was “No separation”.
The same measure, in the same setting: under `CCCCCCCCCCCCCCCC[N+](C)(C)[O-]` [NN Dimethyl-N-oxide hexadecane amine] stands “No separation”.
Still for that read-out and setting: under `CCCCCCCCCCCCCC[N+](C)(C)[O-]` [Myristyl dimethyl amine oxide] stands “No separation”.
